Assay results from patent EP0291751A2, “Pharmaceutical mixture preparation” (Wilhelm, Gerhard, Dr., priority 1987, dated 1988).

Tested on: Symptome des Heuschnupfens
Conditions: alone or together, without Hydroxiphenylalkanolamin

Cc1ncc(C[n+]2csc(CCO)c2C)c(N)n1 [Vitamin B₁]
die Symptome des Heuschnupfens lindernde Wirkung: weder alleine noch gemeinsam miteinander
